We go through 62 molecules from a melting point compilation (Tetko et al.; mined from patent text by program, amines drawn as free bases though some values may be those of a salt).

A value given as a limit tells only on which side of the number the result lay.

Molecule `OC[C@@H]1O[C@H](n2c(NC3CC3)nc3c(Br)c(Cl)c(Cl)cc32)[C@@H](O)[C@H]1O` yielded a melting point of 205 to 208 °C.

`O=C(Nc1ccccc1)Nc1ccc(Cl)cc1C(=O)c1ccccc1` came in with a melting point of 145 to 147 °C. In turn, `O=C(O)/C=C/C=C(c1ccc(-c2ccccc2)cc1)c1ccc(-c2ccccc2)cc1` gave a melting point of 253 to 255 °C. In turn, `O=c1c2[nH]c(C(C3CC3)C3CC3)nc2n(C2CC2)c(=O)n1C1CC1` yielded a melting point of 197 to 198 °C.

For the molecule `N#Cc1cccc2c(-c3ccccc3)coc12`, the melting point was in the range of 143 to 145 °C.

On to `COn1nnc2cc3c(=O)n(C(C)Cn4ncnn4)nnc3cc2c1=O` (configuration not stated), for which the melting point was 227 to 231 °C. `CC(C)Oc1ccc(-c2nc3c4ccccc4ccc3n2C)cc1` displayed a melting point of 144 to 145 °C. Take `N[C@@H](Cc1ccccc1C(F)(F)F)[C@H](O)c1ccc(F)cc1` (racemic): the melting point is 57 to 58 °C. Then `OCCCc1ccc2oc(Cc3ccc4ccccc4c3)nc2c1`, with 102 to 103 °C. Then `Cc1oc(-c2ccc3ccccc3c2)nc1/C=C/c1ccc(CO)cc1`, with 173 to 174 °C; and `COC(=O)Nc1cc(NC(=O)NSC(=S)N(C)C)ccc1C`, with 180 to 185 °C; and `CC(=O)N1CC=C(C2=C(C#N)C(c3cccc4nonc34)c3c[nH]nc3N2)CC1` (configuration not stated), with 237 °C. Then `CN1C(=O)CN(C(=O)c2ccccc2)N(c2cc(Cl)c(C(C#N)c3ccc(Cl)cc3)c(Cl)c2)C1=O` (configuration not stated), with 148 °C; and `COC(=O)c1cc(C(=O)c2cc(C(=O)OC)c(OC)c([N+](=O)[O-])c2)cc([N+](=O)[O-])c1OC`, with 96 to 98 °C; and `CCOc1ncc(S(=O)(=O)N2CCN(CC)CC2)cc1C(=O)Nc1c(C(N)=O)nn(CCOC)c1CC`, with 156 °C. Molecule `O=C1NC(=O)c2c1c(-c1cc([N+](=O)[O-])ccc1O)cc1[nH]c3ccc(O)cc3c21` had a melting point greater than 330 °C.

For `CCCCCC1C=CC(c2ccc(Br)cc2)=CC1` (configuration not stated), the melting point worked out at 74 °C. Next, `O=S(Cc1ccc(Cl)cc1)C1CCC(C=CC=Cc2ccc(C(F)(F)F)cc2)CC1` (configuration not stated): 212 to 214 °C; `COc1cc(/C=C2/C(=O)N(C)C(=O)/C2=C/c2ccccc2)cc(OC)c1OC`: 131 to 133 °C; `Cc1c(-c2ccccc2)nn(C(C)(C)C(=O)N(C)C)c1Cl`: 96 to 99 °C. Next, `CNc1ncc2c(n1)-c1ccc(Cl)cc1C(c1ccccc1F)=NC2`: 172 to 179 °C; `Cc1cc(SCc2cccc3nn(-c4ccc(C(F)(F)F)cc4)cc23)ccc1OCC(=O)O`: 105 to 108 °C; `O=C(Nc1ccc(Oc2ccc(Cl)cc2)cc1)Nc1nonc1-c1ccccc1`: 195 °C. Next, `CCCn1c(CCOC)nc2c(N)nc3cc(OC4CCOC4)ccc3c21` (configuration not stated): 192 to 194 °C; `COc1c(/C=C/c2ccc(C(=O)O)cc2)c(C)cc2c1C(C)(C)CCC2(C)C`: 222 to 223 °C. Turning to `Brc1ccc(C#CC#Cc2ccc(Br)cc2)cc1`, the melting point was 264 to 265 °C. `CCC1(O)CCC2(C)C(CCC3C4CCC(C(C)=O)C4(C)CC(=O)C32)C1` (configuration not stated) gave a melting point of 129 °C. For the molecule `COc1ccc2[nH]cc(CCCN(CC3CC3)C3COc4c(F)ccc(C(N)=O)c4C3)c2c1` (configuration not stated), the melting point is 148 to 154 °C. As to `COc1ccc(-c2c(OCCN3CCOCC3)c3ccccc3oc2=O)cc1`, the melting point was 104 °C. In turn, `NC(=O)c1nnn(Cc2ccc(Sc3ccc(Cl)cc3)c(Cl)c2)c1N` gave a melting point of 202 to 204 °C. Turning to `Cc1cc(NC(=O)NNc2cccc(C#N)c2)ccc1N1CCCCC1=O`, the melting point fell in the range of 206 to 207 °C.

`CC(=O)NCc1ccc2c(c1)N(C1CCNCC1)CC2` displayed a melting point of 165 to 167 °C. `NC(=NO)c1cc2cc(F)c(F)cc2o1` registered a melting point of 184 °C. Next, `Nc1ncc([N+](=O)[O-])c(OCc2ccccc2)n1`: 164 to 167 °C; `CC(C)(C)OC(=O)Nc1ccc(F)nc1`: 112 to 113 °C; `COc1ccccc1-c1cc(O)c(-c2ccccc2C(=O)O)nn1`: 224 to 227 °C. In turn, `CCCN(CCCCC12CC3CC(CC(C3)C1)C2)C(=O)NCCCc1ccncc1` showed a melting point of 110 °C. Next, `CCC(=O)N(CC)c1cccc(-c2ccnc3c(C(=O)c4ccccc4)cnn23)c1`: 194 to 195 °C; `FC(F)(F)Oc1ccc(-n2cc(CBr)cn2)cc1`: 50 to 51 °C; `CCCCCCCCCCCCC(O)CNCCCCCCNCC(O)CCCCCCCCCCCC` (configuration not stated): 118 to 121 °C.

Take `N#Cc1ccc(NC(=O)c2cccc(S(=O)(=O)N3CCOCC3)c2)c(-c2nnn[nH]2)c1`: the melting point fell in the range of 230 to 232 °C. As to `CSC(=NCc1cccnc1)NC#N`, the melting point fell in the range of 152 to 154 °C. Then `CCNC(=N)NC(=O)Cc1ccc(Cl)cc1`, with 146 to 147 °C. Next, `O=C(O)C(F)c1ccc(Cl)cc1` (configuration not stated): 66 to 68 °C; `CCCCc1nc2cc[nH]c(=O)c2n1Cc1ccc([N+](=O)[O-])cc1`: 193 to 194 °C. Next, `Cc1c(-c2ccccc2)nc(N)nc1C1CCN(Cc2cccc(C#N)c2)CC1`: 176 °C; `Cc1c(F)c(N2CCC(n3ccnn3)C2)c(F)c2c1c(=O)c(C(=O)O)cn2C1CC1` (configuration not stated): 228 to 230 °C. The molecule `Cc1cc2c(cc1C)C(c1ccccc1)(C(F)(F)C(F)(F)F)c1cc(C)c(C)cc1O2` registered a melting point of 178 to 179 °C. `O=c1c2cc(O)ccc2nc(C(S)c2ncnc3[nH]cnc23)n1-c1ccccc1Cl` (configuration not stated) displayed a melting point of 186 to 214 °C. Next, `COC(=O)c1ccc(-n2c(C)ccc2C#N)cc1`: 118 to 119 °C.

Molecule `COC(=O)c1cc(-c2nc3ccccc3s2)cc2c1OC(c1ccccc1)(c1ccccc1)O2` showed a melting point of 184 to 185 °C. In turn, `CCOC(=O)c1ccc(COCc2csc3nc(C(=O)NCc4cccc(CS(C)(=O)=O)c4)[nH]c(=O)c23)cc1` yielded a melting point of 227 to 229 °C. Next, `COC(=O)c1cccc2c1ccn2Cc1ccc(OCc2ccc3ccccc3n2)cc1`: 128 to 131 °C. Then `NC(=O)c1sc2nccc(N3CCCN(c4ccc([N+](=O)[O-])cc4)CC3)c2c1N`, with 244 to 248 °C; and `CCCC(=Cc1ccccc1)CN1CCc2nc(N)sc2CC1`, with 77 to 80 °C. As to `Cc1c(Cc2cccc(C(F)(F)F)c2)oc2cccc(-c3cccc(C(=O)O)c3)c12`, the melting point was 169 to 170 °C. The molecule `CCC12CCC3c4ccc(OC)cc4CCC3C1CCC2(OC(C)=O)C(C)=O` (configuration not stated) displayed a melting point of 144 to 148 °C.

`C[C@@H](Cc1cc(F)cc2ccoc12)NC(=O)OC(C)(C)C`: the melting point was 120 to 121 °C. Next, `COc1ccc(OCC(=O)O)c(OC)c1OC`: 102 to 104 °C; `O=C(O)CC1Cc2ccc(O)cc2OC1=O` (configuration not stated): 174 to 175 °C. Then `N#CC1c2ccccc2C=Cc2ccccc21`, with 102 to 104 °C. Next, `CC(=O)NCc1ccc2ccn(C3CCN(CCc4ccccc4F)CC3)c2c1`: 101 to 102 °C.

As a reminder, the melting point is the temperature of the solid-liquid transition.
